{
  "source": "patent US9409952B2",
  "about": "“Peptide-compound cyclization method” (Chugai Seiyaku Kabushiki Kaisha, priority 2011, dated 2016)",
  "key": {"[1]": {"test": "Metabolic stability in human hepatic microsome", "type": "in vitro ADME", "details": "microsomes"}, "[2]": {"test": "PAMPA (parallel artificial membrane permeability assay)", "type": "in vitro ADME", "details": "PAMPA", "in_short": "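Artificial membrane was 10% (w/v) egg lecithin plus 0.5% (w/v) cholesterol in dodecane on a PVDF filter. A 10 mM DMSO stock was added at 0.5% (v/v) to donor buffer (50 mM MOPSO, pH 6.5, 5.0% glycocholic acid). After 18 h at 37 °C, LC/MS or LC/UV gave donor and acceptor levels for Pe.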"}, "[3]": {"details": "pH 7.4, human hepatic microsome, NADPH(+), read-out: CL NADPH(+)"}, "[4]": {"details": "membrane permeation rate (Pe), 50 mM MOPSO buffer pH 6.5 with 5.0% glycocholic acid, 37° C., 18 hours, read-out: iPAMPA Pe"}},
  "note": "Like-named read-outs stand apart in the source and are kept apart here. Positions of bridges follow the written chain, without caps; N, C: chain ends. Non-standard residues stand in square brackets, D forms with d. Residues, ends and D or L forms follow the SMILES beside them. *: point of attachment. NEtPhe = CCN[C@@H](Cc1ccccc1)C(=O)O; NMeF = CN[C@@H](Cc1ccccc1)C(=O)O; NMeI = CC[C@H](C)[C@H](NC)C(=O)O; Aoc(2) = CCCCCC[C@H](N)C(=O)O; NMeL = CN[C@@H](CC(C)C)C(=O)O; NMeV = CN[C@H](C(=O)O)C(C)C; NMeA = CN[C@@H](C)C(=O)O; Piperidide = C1CCN(*)CC1; β3hA = C[C@H](N)CC(=O)O; Sar = CNCC(=O)O; tBu = CC(C)(C)*",
  "data": [
    {"smiles": "CCN1C(=O)CN(C)C(=O)[C@H]([C@@H](C)O)NC(=O)[C@H](C)N(C)C(=O)C[C@@H](C(=O)N2CCCCC2)NC(=O)[C@H](C(C)C)N(C)C(=O)[C@H](C)NC(=O)[C@H](CC(C)C)N(C)C(=O)[C@@H]2CCCN2C(=O)[C@H](CC(C)C)N(C)C(=O)[C@H](Cc2ccccc2)N(C)C(=O)[C@@H]1Cc1ccccc1", "note": "[DP-542] ([NMeA]T[Sar][NEtPhe][NMeF][NMeL]P[NMeL]A[NMeV]D-Piperidide; lactam N-11)", "values": [
      {"measurement": "microsomal CLint at 1 uM", "setting": "[1]; human, pH 7.4, CL NADPH(+)", "result": 21, "unit": "µL/min/mg"},
      {"measurement": "Papp at 18 hours, 50 µM", "setting": "[2]; pH 6.5", "result": 22, "unit": "×10⁻⁶ cm/s"}
    ]},
    {"smiles": "CC[C@H](C)[C@H]1C(=O)N(C)[C@@H](C)C(=O)N(C)[C@@H](CC(C)C)C(=O)N[C@@H](COC(C)(C)C)C(=O)N(C)[C@@H](CC(C)C)C(=O)N[C@@H](C)CC(=O)N(C)[C@@H](C)C(=O)N(C)[C@@H](Cc2ccccc2)C(=O)N[C@@H](CC(C)C)C(=O)N(C)[C@@H](CC(C)C)C(=O)N[C@@H]([C@@H](C)O)C(=O)N1C", "note": "[DP-817] (cyclo(L[NMeL]T[NMeI][NMeA][NMeL]S(tBu)[NMeL][β3hA][NMeA][NMeF]))", "values": [
      {"measurement": "microsomal CLint at 1 uM", "setting": "[1]; [3]", "result": 165, "unit": "µL/min/mg"},
      {"measurement": "Papp at 18 hours, 50 µM", "setting": "[2]; [4]", "result": 25, "unit": "×10⁻⁶ cm/s"}
    ]},
    {"smiles": "CC[C@H](C)[C@H]1C(=O)N(C)[C@@H](CC(C)C)C(=O)N[C@H](C(=O)N2CCCCC2)CC(=O)N[C@H](C)C(=O)N(C)[C@@H](CC(C)C)C(=O)N[C@@H](CC(C)C)C(=O)N(C)[C@@H](Cc2ccccc2)C(=O)N[C@@H](COC(C)(C)C)C(=O)N(C)[C@@H](Cc2ccccc2)C(=O)N[C@@H]([C@@H](C)O)C(=O)N(C)[C@@H](C)C(=O)N1C", "note": "[DP-96] ([dA][NMeL]L[NMeF]S(tBu)[NMeF]T[NMeA][NMeI][NMeL]D-Piperidide; lactam N-11)", "values": [
      {"measurement": "microsomal CLint at 1 uM", "setting": "[1]; human, pH 7.4, CL NADPH(+)", "result": 51, "unit": "µL/min/mg"},
      {"measurement": "Papp at 18 hours, 50 µM", "setting": "[2]; pH 6.5", "result": 13, "unit": "×10⁻⁶ cm/s"}
    ]},
    {"smiles": "CC[C@H](C)[C@H]1C(=O)N[C@@H](Cc2ccccc2)C(=O)N[C@H](C(=O)N2CCCCC2)CC(=O)N[C@H](C)C(=O)N[C@@H](C)C(=O)N(C)[C@@H](CC(C)C)C(=O)N(C)[C@@H](CC(C)C)C(=O)N(C)[C@@H](Cc2ccccc2)C(=O)N[C@@H]([C@@H](C)O)C(=O)N(C)[C@@H](C)C(=O)N(C)[C@@H](C(C)C)C(=O)N1C", "note": "[DP-229] ([dA]A[NMeL][NMeL][NMeF]T[NMeA][NMeV][NMeI]FD-Piperidide; lactam N-11)", "values": [
      {"measurement": "microsomal CLint at 1 uM", "setting": "[1]; [3]", "result": 100, "unit": "µL/min/mg"},
      {"measurement": "Papp at 18 hours, 50 µM", "setting": "[2]; [4]", "result": 33, "unit": "×10⁻⁶ cm/s"}
    ]},
    {"smiles": "CC(C)C[C@H]1C(=O)NCC(=O)N(C)[C@@H](Cc2ccccc2)C(=O)N(C)[C@@H](C(C)C)C(=O)N[C@@H]([C@@H](C)O)C(=O)N[C@H](C(=O)N(C)[C@@H](Cc2ccccc2)C(=O)N(C)[C@@H](Cc2ccccc2)C(=O)N[C@@H](C)C(=O)N2CCCCC2)CC(=O)N(C)CC(=O)N[C@@H](C(C)C)C(=O)N(C)[C@@H](CC(C)C)C(=O)N[C@@H](Cc2ccccc2)C(=O)N1C", "note": "[DP-303] ([Sar]V[NMeL]F[NMeL]G[NMeF][NMeV]TD[NMeF][NMeF]A-Piperidide; lactam N-10)", "values": [
      {"measurement": "microsomal CLint at 1 uM", "setting": "[1]; human, pH 7.4, CL NADPH(+)", "result": 27, "unit": "µL/min/mg"},
      {"measurement": "Papp at 18 hours, 50 µM", "setting": "[2]; pH 6.5", "result": 1.2, "unit": "×10⁻⁶ cm/s"}
    ]},
    {"smiles": "CC(C)C[C@@H]1NC(=O)[C@H]([C@@H](C)O)NC(=O)[C@H](CC(C)C)N(C)C(=O)CN(C)C(=O)[C@H](Cc2ccccc2)N(C)C(=O)[C@H](C(C)C)NC(=O)C[C@@H](C(=O)N2CCCCC2)NC(=O)[C@H](CC(C)C)N(C)C1=O", "note": "[DP-690] (V[NMeF][Sar][NMeL]TL[NMeL]D-Piperidide; lactam N-8)", "values": [
      {"measurement": "microsomal CLint at 1 uM", "setting": "[1]; [3]", "result": 217, "unit": "µL/min/mg"},
      {"measurement": "Papp at 18 hours, 50 µM", "setting": "[2]; [4]", "result": 33, "unit": "×10⁻⁶ cm/s"}
    ]},
    {"smiles": "CC[C@H](C)[C@H](NC(=O)[C@H](C)N(C)C(=O)[C@@H]1CC(=O)N[C@@H](C)C(=O)N[C@@H]([C@@H](C)CC)C(=O)N(C)[C@@H](C)C(=O)N(C)[C@@H](Cc2ccccc2)C(=O)N[C@@H]([C@@H](C)O)C(=O)N(C)[C@@H](Cc2ccccc2)C(=O)N[C@@H](CC(C)C)C(=O)N2CCC[C@H]2C(=O)N1)C(=O)N1CCCCC1", "note": "[DP-668] (AI[NMeA][NMeF]T[NMeF]LPD[NMeA]I-Piperidide; lactam N-9)", "values": [
      {"measurement": "microsomal CLint at 1 uM", "setting": "[1]; human, pH 7.4, CL NADPH(+)", "result": 142, "unit": "µL/min/mg"},
      {"measurement": "Papp at 18 hours, 50 µM", "setting": "[2]; pH 6.5", "result": 26, "unit": "×10⁻⁶ cm/s"}
    ]},
    {"smiles": "CCCCCC[C@@H]1NC(=O)[C@H](Cc2ccccc2)N(C)C(=O)[C@H](C)N(C)C(=O)C[C@H](C)NC(=O)[C@H](C(C)C)N(C)C(=O)[C@H](Cc2ccccc2)N(C)C(=O)[C@H](COC(C)(C)C)NC(=O)[C@H](C)N(C)C(=O)CN(C)C(=O)[C@H]([C@@H](C)O)NC(=O)[C@H](CC(C)C)N(C)C1=O", "note": "[DP-775] (cyclo([Aoc(2)][NMeL]T[Sar][NMeA]S(tBu)[NMeF][NMeV][β3hA][NMeA][NMeF]))", "values": [
      {"measurement": "microsomal CLint at 1 uM", "setting": "[1]; human, pH 7.4, CL NADPH(+)", "result": 119, "unit": "µL/min/mg"},
      {"measurement": "Papp at 18 hours, 50 µM", "setting": "[2]; pH 6.5", "result": 37, "unit": "×10⁻⁶ cm/s"}
    ]},
    {"smiles": "CC[C@H](C)[C@H]1C(=O)N(C)[C@@H](C)C(=O)N(C)[C@@H](Cc2ccccc2)C(=O)N[C@@H]([C@@H](C)O)C(=O)N(C)[C@@H](Cc2ccccc2)C(=O)N(C)[C@@H](CC(C)C)C(=O)N2CCC[C@H]2C(=O)N[C@@H](C)CC(=O)N[C@@H](C)C(=O)NCC(=O)N(C)[C@@H](CC(C)C)C(=O)N1C", "note": "[DP-767] (cyclo(AG[NMeL][NMeI][NMeA][NMeF]T[NMeF][NMeL]P[β3hA]))", "values": [
      {"measurement": "microsomal CLint at 1 uM", "setting": "[1]; human, pH 7.4, CL NADPH(+)", "result": 34, "unit": "µL/min/mg"},
      {"measurement": "Papp at 18 hours, 50 µM", "setting": "[2]; pH 6.5", "result": 30, "unit": "×10⁻⁶ cm/s"}
    ]}
  ]
}
